Assays:
[1] = system: KRASG12V-mutant cell line Capan-2; assay: Cell viability (CellTiter-Glo) and HSA synergy model, Capan-2; assay type: cell-based; conditions: in combination with pan KRAS-IN-1, 120 hours
Description: (§1) Cell lines were seeded in complete growth media (RPMI-1640 or DMEM with 10% Fetal Bovine Serum and 1% Penicillin/Streptomycin) and allowed to adhere overnight in a 37° C. and 5% CO2 humidified incubator. The following day compounds were added at the indicate concentrations and incubated for a further 5 days. The number of viable cells in each well were assessed with Promega CellTiter-Glo® reagent according to manufacturer instructions. The cell viability was normalized to DMSO controls. The cell viability as a function of compound concentrations were plotted using GraphPad Prism analyzed using the Combenefit software package (Di Veroli G Y, Fornari C, Wang D, Mollard S, Bramhall J L, Richards F M, Jodrell D I. Combenefit: an interactive platform for the analysis and visualization of drug combinations. Bioinformatics. 2016 Sep. 15; 32(18):2866-8. doi: 10.1093/bioinformatics/btw230) to assess the synergy according to the highest single agent (HSA) synergy model (Borisy A A, Elliott P J, Hurst N W, Lee M S, Lehar J, Price E R, Serbedzija G, Zimmermann G R, Foley M A, Stockwell B R, Keith C T. Systematic discovery of multicomponent therapeutics. Proc Natl Acad Sci USA. 2003 Jun. 24; 100(13):7977-82. doi: 10.1073/pnas.1337088100)).
The KRASG12V-mutant cell line Capan-2 was grown in RPMI-1640 supplemented with 10% fetal bovine serum and 1% penicillin/streptomycin. […]

[2] = system: RAS wild-type cell line, HaCat; assay: Cell viability (CellTiter-Glo) and HSA synergy model, HaCat control; assay type: cell-based, human
Description: as §1
The KRASG12D-mutant cell line Gp2D was grown in RPMI-16 40 supplemented with 10% fetal bovine serum and 1% penicillin/streptomycin. […]

[3] = system: KRASG12R-mutant cell line PSN1; assay: Cell viability (CellTiter-Glo) and HSA synergy model, PSN1; assay type: cell-based; conditions: in combination with pan KRAS-IN-1, 120 hours
Description: as §1
The KRASG12R-mutant cell line PSN1 was grown in RPMI-1640 supplemented with 10% fetal bovine serum and 1% penicillin/streptomycin. […]

[4] = system: KRASG12C-mutant cell line H358; assay: Cell viability (CellTiter-Glo) and HSA synergy model, H358; assay type: cell-based; conditions: in combination with pan KRAS-IN-1, 120 hours
Description: as §1
The KRASG12C-mutant cell line H358 was grown in RPMI-1640 supplemented with 10% fetal bovine serum and 1% penicillin/streptomycin. […]

[5] = system: KRASG12D-mutant cell line AsPC-1; assay: Cell viability (CellTiter-Glo) and HSA synergy model, AsPC-1; assay type: cell-based
Description: as §1
The KRASG12D-mutant cell line AsPC-1 was grown in RPMI-1640 supplemented with 10% fetal bovine serum and 1% penicillin/streptomycin. 2500 cells were seeded in 0.15 mL in the wells of a tissue culture-treated 96-well plate. After overnight incubation, compounds were added at the indicated concentration and incubated for a further 120 hours. Cell viability was assessed with Promega CellTiter Glo reagent, and the relative cell viability was plotted as a function of the concentration of (FIG. 4A and FIG. 4G) MRTX1133 or (FIG. 4D) MRTX-282 in combination with the indicated concentration to Compound A (FIG. 4A and FIG. 4D) or Compound D (FIG. 4G), both strong hydrolyzers. The synergy between (FIG. 4B and FIG. 4H) MRTX1133 or (FIG. 4E) MRTX-282 and Compound A (FIGS. 4B and 4E) or Compound D (FIG. 4H) was assessed by the HAS synergy model. Representative points of synergistic drug combination between (FIG. 4C and FIG. 4I) MRTX1133 or (FIG. 4F) MRTX-282 and Compound A (FIG. 4C and FIG. 4F) or Compound D (FIG. 4I) are highlighted.
The KRASG12D-mutant cell line AsPC-1 was grown in RPMI-1640 supplemented with 10% fetal bovine serum and 1% penicillin/streptomycin. 2000 cells were seeded in 0.15 mL in the wells of a tissue culture-treated 96-well plate. After overnight incubation, compounds were added at the indicated concentration and incubated for a further 120 hours. Cell viability was assessed with Promega CellTiter Glo reagent, and the relative cell viability was plotted as a function of the concentration of pan KRAS-IN-1 in combination with the indicated concentration to Compound D (FIG. 11A) or Compound C (FIG. 11D), both strong hydrolyzers. The synergy between pan KRAS-IN-1 and Compound D (FIG. 11B) or Compound C (FIG. 11E) was assessed by the HAS synergy model. Representative points of synergistic drug combination between pan KRAS-IN-1 and Compound D (FIG. 11C) or Compound C (FIG. 11F).

[6] = system: complexes between KRAS proteins and the RAS-binding domain (RBD) of the RAF1 kinase; assay: Intracellular RAS-RAF complex reporter assay (nanoBRET) in U2OS cells, multiple KRAS variants; assay type: cell-based; conditions: 4 hours
Description: A cellular assay was used to measure complexes between KRAS proteins and the RAS-binding domain (RBD) of the RAF1 kinase by nanoluciferase bioluminescence energy transfer (nanoBRET™) U2OS cells were seeded at confluence in the 3 mL of DMEM supplemented with 10% fetal bovine serum and 1% penicillin/streptomycin (approximately 1 million cells per well). The following day, each well was transfected with 50 ng of a plasmid encoding N-terminal nanoluciferase-tagged KRAS4B and 2950 ng of a plasmid encoding a C-terminal HaloTag® RAF1 RBD (residues 51-149) using FuGENE HD reagent according to manufacturer instructions. The following day, each transfected cell pool was transferred to 36 wells of a white 96-well plate in media consistiting of OptiMem phenol-red free supplemented with 4% fetal bovine serum, 1% penicillin/streptomycin, and 100 nM of HaloTag® NanoBRET™ 618 Ligand. The following day, Vivazine™ nanoluciferase substrate and compounds were added at the indicated concentration. After 4 hours of incubation, the emitted light at 460 and 618 nm was measured using a PerkinElmer Envision plate reader. The luminescence intensity at 618 nm relative to 460 nm is proportional to the number of complexes between the KRAS protein and the RBD of RAF1, a surrogate measure of the levels of active KRAS.

[7] = molecular target: T1, GTP-loaded KRAS proteins (residue 1-169 of KRAS4B) (Homo sapiens, UniProt P01116, G12V); assay: RAS GTP hydrolysis rate assay (GTPase-Glo) with cyclophilin A; assay type: biochemical; conditions: bound in tri-complex with cyclophilin A; in some embodiments KRAS^G12V is the isoform used
T1 construct: recombinant KRAS proteins (residue 1-169 of KRAS4B); His6 (TEV protease-cleavable) (cleaved yes); made in house; host or cells: E. coli
Description: (§2) The rate of RAS GTP hydrolysis was assayed in the presence of various KRAS mutations. To assess GTP hydrolysis activity, recombinant KRAS proteins (residue 1-169 of KRAS4B) were expressed in E. coli and purified using a TEV protease-cleavable His6-tag and Ni^2+ affinity chromatography. The His6 tag was removed by treatment with TEV protease, and the KRAS protein was isolated by passing through a second Ni^2+ column followed by size exclusion chromatography. The purified KRAS proteins were loaded with GTP by incubation for 2 hours on ice with 2 mM GTP and 10 mM Ethylenediaminetetraacetic Acid, followed by addition of 10 mM MgCl2 and incubation on ice for 1 additional hour. The excess GTP was removed by overnight dialysis against buffer (12.5 mM HEPES, 75 mM NaCl, pH 7.5) at 4° C. The GTP-loaded KRAS protein were flash frozen in liquid nitrogen, then stored at −80° C. until use.
(§3) GTP-loaded KRAS proteins (1 μM) were combined with 25 μM of recombinant human cyclophilin A and 10 μM of compound in reaction buffer (12.5 mM HEPES, 75 mM NaCl, 1 mM MgCl2, 1 mM DTT, 1% DMSO, pH 7.5) pre-warmed to 37° C. At fixed time points, aliquots were removed and quenched by heating to 80° C. to denature the proteins, then centrifuged to pellet the protein precipitate. The supernatant was assessed for GTP levels using Promega GTPase-Glo™ according to manufacturer instructions. The levels of GTP as a function of incubation time were fit to a single phase exponential decay to determine the rate constant for hydrolysis activity.

[8] = system: GTP-loaded KRAS proteins (residue 1-169 of KRAS4B); assay: as above; assay type: biochemical; conditions: all RAS mutants except those with mutations of the Q61 residue; 10 μM compound, 25 μM cyclophilin A, 37° C.
Description: as §2, §3

[9] = molecular target: T2, KRAS^WT-RAF1 RBD complex (Homo sapiens, UniProt P01116); assay: Intracellular RAS-RAF complex reporter assay (nanoBRET) in U2OS cells, KRAS^WT; assay type: cell-based; conditions: 4 hours
T2 construct: expressed in transfected cells; host or cells: U2OS
Description: A cellular assay was used to measure complexes between KRAS proteins and the RAS-binding domain (RBD) of the RAF1 kinase by nanoluciferase bioluminescence energy transfer (nanoBRET™) U2OS cells were seeded at confluence in the 3 mL of DMEM supplemented with 10% fetal bovine serum and 1% penicillin/streptomycin (approximately 1 million cells per well). […] The following day, Vivazine™ nanoluciferase substrate and compounds were added at the indicated concentration. After 4 hours of incubation, the emitted light at 460 and 618 nm was measured using a PerkinElmer Envision plate reader. The luminescence intensity at 618 nm relative to 460 nm is proportional to the number of complexes between the KRAS protein and the RBD of RAF1, a surrogate measure of the levels of active KRAS.

[10] = AsPC-1, in combination with pan KRAS-IN-1, 120 hours

Row | SMILES | synergy on cell viability (HSA synergy model) [1] | synergy on cell viability (HSA synergy model) ([2]; in combination with MRTX1133) | synergy on cell viability (HSA synergy model) ([2]; in combination with MRTX-282) | synergy on cell viability (HSA synergy model) [3] | synergy on cell viability (HSA synergy model) [4] | synergy on cell viability (HSA synergy model) ([5]; AsPC-1, in combination with MRTX1133, 120 hours) | synergy on cell viability (HSA synergy model) [5, 10] | potency for inhibition of RAS-RAF complexes across multiple KRAS variants [6] | hydrolyzer class: RAS(ON) GTP hydrolysis rate relative to the intrinsic hydrolysis rate [7] | RAS GTP hydrolysis in various RAS mutants in the presence of compound [8] | potency for inhibition of RAS-RAF complexes vs KRAS^WT, relative to the other KRAS variants [9]
1 | CCn1c(-c2cc(N3CCN(C)CC3)cnc2[C@H](C)OC)c2c3cc(ccc31)[C@@H]1C[C@H]1CC[C@H](NC(=O)[C@H]1[C@H](C)[C@@H]1C)C(=O)N1CCC[C@H](N1)C(=O)OCC(C)(C)C2 (atropisomer, axis not shown) [compound 6] | synergistic | no synergy | no synergy | synergistic | synergistic | synergistic | synergistic |  |  |  | 
2 | CCn1c(-c2cc(N3CCN(C)CC3)cnc2[C@H](C)OC)c2c3cc(ccc31)CCCC[C@H](NC(=O)[C@H]1C[C@@H]1C)C(=O)N1CCC[C@H](N1)C(=O)OCC(C)(C)C2 (atropisomer, axis not shown) [compound 3] | synergistic |  |  | synergistic | synergistic |  | synergistic |  |  |  | 
3 | CCn1c(-c2cc(N3CCN(C4CC4)CC3)cnc2[C@H](C)OC)c2c3cc(ccc31)-c1csc(n1)C[C@H](NC(=O)[C@H]1[C@@H]3COC[C@@H]31)C(=O)N1CCC[C@H](N1)C(=O)OCC(C)(C)C2 (atropisomer, axis not shown) [compound 8] |  |  |  |  |  |  |  | roughly similar potency | 8 (Compound E) Moderate | increased hydrolysis | modestly lower potency

— US20260256780A1, “COMPOSITIONS FOR INDUCING RAS GTP HYDROLYSIS AND USES THEREOF” (Revolution Medicines, Inc., priority 2023, published 2026)
